Test results as given in US10703746B2, “Mutant IDH1 inhibitors useful for treating cancer” (THE UNITED STATES OF AMERICA, AS REPRESENTED BY THE …, priority 2014, dated 2020).

Key:
[1] = target: IDH1 R132H (Homo sapiens, UniProt O75874, R132H); assay: IDH1 R132H enzymatic assay (NADPH depletion coupled to diaphorase/resazurin); type: biochemical; details: IDH1 R132H enzymatic inhibition, IC50 class
[2] = target: IDH1 R132C (Homo sapiens, UniProt O75874, R132C); assay: IDH1 R132C enzymatic assay (NADPH depletion coupled to diaphorase/resazurin); type: biochemical; details: IDH1 R132C enzymatic inhibition, IC50 class
In short: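 NADPH depletion, read via diaphorase/resazurin coupling, after adding substrate at 0.6 mM α-KG and 0.012 mM NADPH. Beforehand, 0.00032 mg/mL enzyme sat with compound 30 min at room temperature in pH 6.5 potassium phosphate buffer with MgCl2, glycerol and BSA.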

Chain of IDH1 R132H (O75874 whole entry R132H): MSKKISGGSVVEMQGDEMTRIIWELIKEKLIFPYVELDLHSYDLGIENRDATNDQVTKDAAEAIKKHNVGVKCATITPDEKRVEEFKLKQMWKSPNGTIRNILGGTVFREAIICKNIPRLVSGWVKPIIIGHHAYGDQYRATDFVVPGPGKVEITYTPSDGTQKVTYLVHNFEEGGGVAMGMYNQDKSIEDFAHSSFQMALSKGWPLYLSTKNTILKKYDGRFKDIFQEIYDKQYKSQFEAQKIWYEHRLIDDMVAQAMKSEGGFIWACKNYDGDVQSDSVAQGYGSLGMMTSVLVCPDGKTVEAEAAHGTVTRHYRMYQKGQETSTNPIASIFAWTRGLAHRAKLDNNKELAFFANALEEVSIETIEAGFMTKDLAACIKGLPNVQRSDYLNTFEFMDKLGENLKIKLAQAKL
Chain of IDH1 R132C (O75874 whole entry R132C): as the sequence (O75874 whole entry R132H) above, with H132C counted along it

SMILES	IC50 [1]	IC50 [2]
CCc1cccc(CC)c1-n1c(C)c(C(=O)N2CCC(O)C2)cc(-c2nc(-c3ccc(Cl)cc3)cs2)c1=O (stereo not drawn) [Compound 103]	1000 to 5000 nM	5000 to 20000 nM
CCc1cccc(CC)c1-n1c(CC(C)C)c(C(=O)N2CCNCC2)cc(-c2ccn(-c3ccccc3)n2)c1=O [Compound 104]	1000 to 5000 nM	1000 to 5000 nM
CC(=O)Nc1ccccc1-n1c2c(cc(-c3nc(-c4ccc(Cl)cc4)cs3)c1=O)C(=O)CC(C)(C)C2 [Compound 105]	1000 to 5000 nM	5000 to 20000 nM
CCc1cccc(CC)c1-n1c(C)c(C(=O)N2CCNC(CO)C2)cc(-c2nc(-c3ccc(Cl)cc3)cs2)c1=O (stereo not drawn) [Compound 106]	< 300 nM	300 to 1000 nM
CCc1cccc(CC)c1-n1c(CC(C)C)c(C(=O)N2CCNC(C)C2C)cc(-c2nc(-c3ccc(Cl)cc3)cs2)c1=O (stereo not drawn) [Compound 107]	300 to 1000 nM	< 300 nM
CCc1cccc(CC)c1-n1c(C)c(C(=O)NC)cc(-c2nc(-c3ccc(Cl)cc3)cs2)c1=O [Compound 108]	1000 to 5000 nM	1000 to 5000 nM
CCc1cccc(CC)c1-n1c(C)c(C(=O)N2CCC(C(=O)O)CC2)cc(-c2nc(-c3ccc(Cl)cc3)cs2)c1=O [Compound 109]	1000 to 5000 nM	5000 to 20000 nM
CCc1cccc(CC)c1-n1c(C)c(C(=O)N2CCOCC2)cc(-c2nc(-c3ccc(Cl)cc3)cs2)c1=O [Compound 110]	1000 to 5000 nM	1000 to 5000 nM
COc1ccc(OC)c(-n2c3c(cc(-c4cccc(-c5ccc(Cl)cc5)c4)c2=O)C(=O)CC(C)(C)C3)c1 [Compound 111]	> 20000 nM	5000 to 20000 nM
CCc1cccc(CC)c1-n1c(CC(C)C)c(C(=O)N2C[C@@H](C)N[C@@H](C)C2)cc(-c2nc(-c3ccc(Cl)cc3)cs2)c1=O [Compound 112]	300 to 1000 nM	< 300 nM
CCc1cccc(CC)c1-n1c(CC(C)C)c(C(=O)N2CC(C(=O)OC)NCC2C)cc(-c2nc(-c3ccc(Cl)cc3)cs2)c1=O (stereo not drawn) [Compound 113]	1000 to 5000 nM	300 to 1000 nM
CCc1cccc(CC)c1-n1c(C)c(C(=O)NC2CCCNC2)cc(-c2nc(-c3ccc(Cl)cc3)cs2)c1=O (stereo not drawn) [Compound 114]	1000 to 5000 nM	300 to 1000 nM
CC1(C)CC(=O)c2cc(-c3nc(-c4ccc(Cl)cc4)cs3)c(=O)n(-c3ccccc3CC(F)(F)F)c2C1 [Compound 115]	300 to 1000 nM	300 to 1000 nM
CCc1cccc(CC)c1-n1c(C)c(C(=O)NC2CCCCC2)cc(-c2nc(-c3ccc(Cl)cc3)cs2)c1=O [Compound 116]	> 20000 nM	1000 to 5000 nM
CCc1cccc(CC)c1-n1c(CC(C)C)c(C(=O)N2CCNC(C(=O)OC)C2)cc(-c2nc(-c3ccc(Cl)cc3)cs2)c1=O (stereo not drawn) [Compound 117]	1000 to 5000 nM	< 300 nM
CCc1cccc(CC)c1-n1c(CC(C)C)c(C(=O)NC(C)CO)cc(-c2nc(-c3ccc(Cl)cc3)cs2)c1=O (stereo not drawn) [Compound 118]	300 to 1000 nM	< 300 nM
CCc1cccc(CC)c1-n1c2c(cc(-c3nc(-c4cccnc4)cs3)c1=O)C(=O)CC(C)(C)C2 [Compound 119]	5000 to 20000 nM	1000 to 5000 nM
COc1ccc(OC)c(-n2c3c(cc(-n4cc(-c5ccccc5)cn4)c2=O)C(=O)CC(C)(C)C3)c1 [Compound 120]	> 20000 nM	> 20000 nM
CC1(C)CC(=O)c2cc(-c3nc(-c4ccc(Cl)cc4)cs3)c(=O)n(-c3ccccn3)c2C1 [Compound 121]	5000 to 20000 nM	5000 to 20000 nM
COc1ccc(N)cc1-n1c2c(cc(-c3nc(-c4ccc(Cl)cc4)cs3)c1=O)C(=O)CC(C)(C)C2 [Compound 122]	1000 to 5000 nM	300 to 1000 nM
CCc1cccc(CC)c1-n1c(C)c(C(=O)NC(C)(C)C)cc(-c2nc(-c3ccc(Cl)cc3)cs2)c1=O [Compound 123]	5000 to 20000 nM	1000 to 5000 nM
COc1ccc(OC)c(-n2c3c(cc(-c4nc(C)cs4)c2=O)C(=O)CC(C)(C)C3)c1 [Compound 124]	> 20000 nM	5000 to 20000 nM
CCc1cccc(CC)c1-n1c(C(C)C)c(C(=O)OC)cc(-c2nc(-c3ccc(Cl)cc3)cs2)c1=O [Compound 125]	1000 to 5000 nM	1000 to 5000 nM
CCc1cccc(CC)c1-n1c(CC(C)C)c(C(=O)NCC(O)C(F)(F)F)cc(-c2nc(-c3ccc(Cl)cc3)cs2)c1=O (stereo not drawn) [Compound 127]	300 to 1000 nM	< 300 nM

SMILES	IC50 [1]	IC50 [2]
COc1ccc([N+](=O)[O-])cc1-n1c2c(cc(-c3nc(-c4ccc(Cl)cc4)cs3)c1=O)C(=O)CC(C)(C)C2 [Compound 128]	1000 to 5000 nM	1000 to 5000 nM
COc1ccc(OC)c(-n2c3c(cc(-c4nc(-c5ccc(Cl)cc5)cs4)c2=O)C(=O)CCC3)c1 [Compound 129]	1000 to 5000 nM	1000 to 5000 nM
CC(C)Oc1ccccc1-n1c2c(cc(-c3nc(-c4ccc(Cl)cc4)cs3)c1=O)C(=O)CC(C)(C)C2 [Compound 130]	1000 to 5000 nM	300 to 1000 nM
CCc1cccc(CC)c1-n1c(CC(C)C)c(C(=O)N2CCN[C@@H](C(=O)OC)C2)cc(-c2nc(-c3ccc(Cl)cc3)cs2)c1=O [Compound 131]	1000 to 5000 nM	< 300 nM
CCc1cccc(CC)c1-n1c2c(cc(-c3nc(-c4ccncc4)cs3)c1=O)C(=O)CC(C)(C)C2 [Compound 132]	1000 to 5000 nM	1000 to 5000 nM
CCc1cccc(CC)c1-n1c(C)c(C(=O)N(C)CCCNC)cc(-c2nc(-c3ccc(Cl)cc3)cs2)c1=O [Compound 133]	5000 to 20000 nM	1000 to 5000 nM
CCSc1ccccc1-n1c2c(cc(-c3nc(-c4ccc(Cl)cc4)cs3)c1=O)C(=O)CC(C)(C)C2 [Compound 134]	1000 to 5000 nM	300 to 1000 nM
CCCSc1ccccc1-n1c2c(cc(-c3nc(-c4ccc(Cl)cc4)cs3)c1=O)C(=O)CC(C)(C)C2 [Compound 135]	1000 to 5000 nM	300 to 1000 nM
COc1cc(C(=O)O)ccc1-n1c2c(cc(-c3nc(-c4ccc(Cl)cc4)cs3)c1=O)C(=O)CC(C)(C)C2 [Compound 136]	> 20000 nM	> 20000 nM
CCc1cccc(CC)c1-n1c(CC(C)C)c(C(=O)N2CCNCC2)cc(-c2nc(-c3ccc(N4CCNCC4)cc3)c(C)s2)c1=O [Compound 137]	> 20000 nM	> 20000 nM
CCc1cccc(CC)c1-n1c(C)c(C(=O)N2CCNC(=O)C2)cc(-c2nc(-c3ccc(Cl)cc3)cs2)c1=O [Compound 138]	< 300 nM	1000 to 5000 nM
CCc1cccc(CC)c1-n1c(C)c(C(=O)N2CC(N)C2)cc(-c2nc(-c3ccc(Cl)cc3)cs2)c1=O [Compound 139]	1000 to 5000 nM	1000 to 5000 nM
CCc1cccc(CC)c1-n1c(CC(C)C)c(C(=O)NC[C@H](NC(C)=O)C(=O)O)cc(-c2nc(-c3ccc(Cl)cc3)cs2)c1=O [Compound 140]	5000 to 20000 nM	5000 to 20000 nM
CCc1cccc(CC)c1-n1c(CC(C)C)c(C(=O)N2CCN[C@@H](C)C2)cc(-c2nc(-c3ccc(Cl)cc3)cs2)c1=O [Compound 141]	300 to 1000 nM	< 300 nM
CCc1cccc(CC)c1-n1c(C)c(C(=O)N2CCNC[C@H]2C)cc(-c2nc(-c3ccc(Cl)cc3)cs2)c1=O [Compound 142]	< 300 nM	300 to 1000 nM
CCc1cccc(CC)c1-n1c(C)c(C(=O)O)cc(-c2nc(-c3ccc(Cl)cc3)cs2)c1=O [Compound 143]	5000 to 20000 nM	5000 to 20000 nM
COc1ccc(OC)c(-n2c3c(cc(-c4nc(-c5ccc(Cl)cc5)cs4)c2=O)C=CC(C)(C)C3)c1 [Compound 144]	1000 to 5000 nM	1000 to 5000 nM
CCc1cccc(CC)c1-n1c(CC(C)C)c(C(=O)N2CCNCC2c2ccccc2)cc(-c2nc(-c3ccc(Cl)cc3)cs2)c1=O (stereo not drawn) [Compound 145]	300 to 1000 nM	< 300 nM
CCc1cccc(CC)c1-n1c(C)c(C(=O)NCC(C)(C)C)cc(-c2nc(-c3ccc(Cl)cc3)cs2)c1=O [Compound 146]	> 20000 nM	1000 to 5000 nM
CCc1cccc(CC)c1-n1c(CC(C)C)c(C(=O)N2CCNCC2C(=O)OC)cc(-c2nc(-c3ccc(Cl)cc3)cs2)c1=O (stereo not drawn) [Compound 147]	1000 to 5000 nM	< 300 nM
CCc1cccc(CC)c1-n1c2c(cc(-c3nc(-c4ccc(F)cc4)cs3)c1=O)C(=O)CC(C)(C)C2 [Compound 148]	300 to 1000 nM	300 to 1000 nM
COc1ccc(OC)c(-n2c3c(cc(-c4nc5ccc(Cl)cc5s4)c2=O)C(=O)CC(C)(C)C3)c1 [Compound 149]	> 20000 nM	1000 to 5000 nM
CC1(C)CC(=O)c2cc(-c3nc(-c4ccc(Cl)cc4)cs3)c(=O)n(-c3ccccc3)c2C1 [Compound 150]	5000 to 20000 nM	5000 to 20000 nM
CCc1cccc(CC)c1-n1c(C)c(C(=O)NC[C@@H](C)O)cc(-c2nc(-c3ccc(Cl)cc3)cs2)c1=O [Compound 151]	1000 to 5000 nM	300 to 1000 nM
